Source: US20250197405A1, “HETEROAROMATIC COMPOUNDS AS PKMYT1 INHIBITORS AND USE THEREOF” (INSILICO MEDICINE IP LIMITED, priority 2022, published 2025)

The compounds below were run against PKMYT1 (Homo sapiens (Human), UniProt Q99640) (assay: PKMYT1 HTRF assay). Settings: Tracer 178, GST-Tb, compound 10 μM to 0.5 nM.
Type: binding
Method: Compound serial dilution was performed by Echo, and the final concentrations varied from 10 μM to 0.5 nM. 5 μL/well of Enzyme solution was added to the assay plate containing the compound. The plate was centrifuged at 1000 rpm for 1 min, and incubated at 25° C. for 15 min. […] Next, 5 μL of GST-Tb was added into the assay plate, the plate was centrifuged at 1000 rpm for 1 min, and incubated at 25° C. for 15 min. The assay plate was read on Envision.

PKMYT1, sequence (Q99640 whole entry): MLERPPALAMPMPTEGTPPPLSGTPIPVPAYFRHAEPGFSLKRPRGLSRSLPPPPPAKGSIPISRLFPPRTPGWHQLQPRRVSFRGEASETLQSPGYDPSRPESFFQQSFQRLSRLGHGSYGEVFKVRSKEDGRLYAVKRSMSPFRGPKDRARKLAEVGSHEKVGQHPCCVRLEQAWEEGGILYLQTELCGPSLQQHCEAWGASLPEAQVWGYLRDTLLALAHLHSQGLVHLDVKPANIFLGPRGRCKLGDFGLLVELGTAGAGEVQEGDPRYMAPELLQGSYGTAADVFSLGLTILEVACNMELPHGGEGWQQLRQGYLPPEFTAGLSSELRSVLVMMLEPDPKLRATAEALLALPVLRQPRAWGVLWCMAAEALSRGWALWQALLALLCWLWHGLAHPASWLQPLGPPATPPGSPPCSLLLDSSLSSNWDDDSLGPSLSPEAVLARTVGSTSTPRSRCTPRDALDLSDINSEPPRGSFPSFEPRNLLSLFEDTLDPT

Compound	IC50 [nM]
COc1nc(C)nc2c1c(C(N)=O)c(N)n2-c1c(C)ccc(O)c1C (atropisomer, axis not shown) [Compound 7]	1.5
Cc1nc(Oc2cnn(C)c2)c2c(C(N)=O)c(N)n(-c3c(C)ccc(O)c3C)c2n1 (atropisomer, axis not shown) [Compound 9]	2.8
Cc1ccc(O)c(C)c1-n1c(N)c(C(N)=O)c2c(=O)n(C)c(C)cc21 [Compound 3, 2-amino-1-(3-hydroxy-2,6-dimethylphenyl)-5,6-dimethyl-4-oxopyrrolo[3,2-c]pyridine-3-carboxamide]	11.9
Cc1ccc(O)c(C)c1-n1c(N)c(C(N)=O)c2cnc(C(F)(F)F)nc21 [Compound 2]	8.9
Cc1ccc(O)c(C)c1-n1c(N)c(C(N)=O)c2c(=O)n(CF)c(C)nc21 [Compound 12-P2]	1.5
Cc1ncc2c(C(N)=O)c(N)n(-c3c(C)ccc(O)c3Cl)c2n1 [Compound 4, 6-amino-7-(2-chloro-3-hydroxy-6-methylphenyl)-2-methylpyrrolo[2,3-d] pyrimidine-5-carboxamide]	4.1
Cc1nc(N2CCC2)c2c(C(N)=O)c(N)n(-c3c(C)ccc(O)c3C)c2n1 (atropisomer, axis not shown) [Compound 8]	13
Cc1nc(OCF)c2c(C(N)=O)c(N)n(-c3c(C)ccc(O)c3C)c2n1 [Compound 11]	2.3
Cc1nc(OC(F)F)c2c(C(N)=O)c(N)n(-c3c(C)ccc(O)c3C)c2n1 [Compound 10]	3.4
